Like-named read-outs stand apart in the source and are kept apart here.

The test system of assay [1] is Peripheral blood mononuclear cells (PBMCs) mixed with mitomycin C treated RPMI1788 cells. Briefly: Mixed lymphocyte reaction (MLR) assay, 3H-thymidine uptake.
Description: In the MLR assay PBMCs from two individuals are mixed together in tissue culture for several days. […] In the one-way MLR test, the mononuclear cells from one of the individuals are inactivated (usually by treatment with mitomycin C or irradiation), thereby allowing only the untreated remaining population of mononuclear cells, such as lymphocytes, to proliferate in response to foreign histocompatibility antigens.
The immunosuppressive effect of test compounds was also investigated using MLR assays. Peripheral blood mononuclear cells (PBMCs) were isolated from heparinized blood of healthy donors by density-gradient centrifugation over Lymphoprep. […] RPMI1788 cells were treated with 30 μg/mL mitomycin C for 20 min at 37° C., washed four times with medium, and finally suspended in complete RPMI medium to a density of 0.45×10^6 cells/mL. An amount of 100 μL of each cell suspension was mixed with 20 μL of diluted compound. The mixed cells were cultured at 37° C. for 6 days in 5% CO2. […] Thereafter, the cells were harvested on glass filter paper and the counts per minute (cpm) determined in a liquid scintillation counter.
Assay [2] has as its target T1, PI3KCB (PI3K p110β/p85α (h)) (Homo sapiens, UniProt P42338).
T1 construct: purchased Millipore
Description: Commercial kinase activity assay (Millipore, HTRF). The format is biochemical. Particulars: 10 μM test compound. On the procedure:
LOK (h) was incubated with 8 mM MOPS pH 7.0, 0.2 mM EDTA, 250 μM […], 10 mM MgAcetate and [γ-^33P-ATP] (specific activity approx. 500 cpm/pmol, concentration as required). The reaction was initiated by the addition of the MgATP mix. After incubation for 40 minutes at room temperature, the reaction was stopped by the addition of 3% phosphoric acid solution. 10 μL of the reaction was then spotted onto a P30 filtermat and washed three times for 5 minutes in 75 mM phosphoric acid and once in methanol prior to drying and scintillation counting. PI3K p110β/p85α (h) PI3K (p110β/p85α) (h) was incubated in assay buffer containing 10 μM phosphatidylinositol-4,5-bisphosphate and MgATP (concentration as required). The reaction was initiated by the addition of the MgATP mix. After incubation for 30 minutes at room temperature, the reaction was stopped by the addition of stop solution containing EDTA and biotinylated phosphatidylinositol-3,4,5-trisphosphate. Finally, detection buffer was added, which contains europium-labelled anti-GST monoclonal antibody, GST-tagged GRP1 PH domain and streptavidinallophycocyanin. The plate was then read in time-resolved fluorescence mode and the homogenous time-resolved fluorescence (HTRF®) signal determined according to the formula HTRF=10000×(Em665nm/Em620 nm). […]
(In TR-FRET formats the signal depends on donor and acceptor labels being close together.)

Another assay has as its target T2, PI4KA (PI4K alpha) (Homo sapiens, UniProt P42356).
T2 construct: purchased Invitrogen
Briefly: Commercial kinase activity assay (Invitrogen, ADP TR-FRET). The class given is biochemical. To be noted: 10 μM test compound.

The next assay deals with T3, PAK1 (Homo sapiens, UniProt Q13153).
T3 construct: made in house; host or cells: E. coli BL21-derived host (T7 phage) or HEK-293
Description: Commercial kinase activity assay (Invitrogen, fluorescence). The format is biochemical. To be noted: 10 μM test compound.

The target of assay [3] is PI4KIIIβ (PI4KB, PI4K beta) (Homo sapiens, UniProt Q9UBF8). Briefly: Commercial kinase activity assay (Invitrogen, ADP TR-FRET). To be noted: for inhibition at 10 µM: read-out: % inhibition of PI4KIIIβ @ 10 μM.
Description: PI4KB (PI4K beta) The 2× PI4KB (PI4K beta)/PI Lipid Kinase Substrate mixture was prepared in 50 mM HEPES pH 7.5, 0.1% CHAPS, 1 mM EGTA, 4 mM MgCl2. […] After a 60-minute development reaction incubation at room temperature, the fluorescence was read on plate reader and the data analyzed.
In the next assay the target is T4, YSK4 (h) (Homo sapiens, UniProt Q56UN5).
T4 construct: purchased Millipore
T4 sequence (Q56UN5 1-1328): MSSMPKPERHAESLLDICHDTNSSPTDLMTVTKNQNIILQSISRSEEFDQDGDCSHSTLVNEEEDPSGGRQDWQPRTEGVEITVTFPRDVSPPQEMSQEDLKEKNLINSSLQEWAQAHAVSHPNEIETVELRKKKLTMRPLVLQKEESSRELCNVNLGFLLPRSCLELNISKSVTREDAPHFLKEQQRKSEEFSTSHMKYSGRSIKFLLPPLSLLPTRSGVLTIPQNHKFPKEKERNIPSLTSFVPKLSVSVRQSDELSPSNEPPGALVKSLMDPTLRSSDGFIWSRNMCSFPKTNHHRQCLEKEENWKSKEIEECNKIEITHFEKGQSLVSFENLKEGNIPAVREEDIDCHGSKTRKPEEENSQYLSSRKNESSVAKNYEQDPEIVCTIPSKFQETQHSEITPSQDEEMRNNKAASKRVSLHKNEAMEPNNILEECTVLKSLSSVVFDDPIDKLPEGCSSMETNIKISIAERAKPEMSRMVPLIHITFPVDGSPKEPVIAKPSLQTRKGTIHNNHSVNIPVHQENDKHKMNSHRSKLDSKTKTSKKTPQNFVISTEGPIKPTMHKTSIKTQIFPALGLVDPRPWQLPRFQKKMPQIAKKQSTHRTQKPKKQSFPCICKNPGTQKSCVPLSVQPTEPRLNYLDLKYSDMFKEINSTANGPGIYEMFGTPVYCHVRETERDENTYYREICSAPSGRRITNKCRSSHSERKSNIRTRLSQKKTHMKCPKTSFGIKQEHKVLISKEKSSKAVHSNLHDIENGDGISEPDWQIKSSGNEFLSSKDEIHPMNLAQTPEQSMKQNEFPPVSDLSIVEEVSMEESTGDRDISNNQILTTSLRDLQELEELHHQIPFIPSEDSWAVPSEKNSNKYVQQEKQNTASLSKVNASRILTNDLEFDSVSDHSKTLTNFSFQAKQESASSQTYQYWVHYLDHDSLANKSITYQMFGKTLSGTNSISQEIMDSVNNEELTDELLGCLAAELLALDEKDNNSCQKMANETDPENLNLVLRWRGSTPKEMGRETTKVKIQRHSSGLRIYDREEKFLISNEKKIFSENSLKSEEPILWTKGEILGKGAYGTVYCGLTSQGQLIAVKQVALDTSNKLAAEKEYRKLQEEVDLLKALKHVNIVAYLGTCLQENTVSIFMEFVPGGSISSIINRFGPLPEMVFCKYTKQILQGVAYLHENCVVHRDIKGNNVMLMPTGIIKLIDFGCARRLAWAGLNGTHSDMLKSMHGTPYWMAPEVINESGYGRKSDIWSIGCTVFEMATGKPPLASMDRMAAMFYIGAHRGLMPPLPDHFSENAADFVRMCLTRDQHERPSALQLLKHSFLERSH
Description: Commercial kinase activity assay (Millipore, 33P-ATP filter). The class given is biochemical. To be noted: 10 μM test compound. On the procedure:
(§1) LOK (h) was incubated with 8 mM MOPS pH 7.0, 0.2 mM EDTA, 250 μM […], 10 mM MgAcetate and [γ-^33P-ATP] (specific activity approx. 500 cpm/pmol, concentration as required). The reaction was initiated by the addition of the MgATP mix. After incubation for 40 minutes at room temperature, the reaction was stopped by the addition of 3% phosphoric acid solution. 10 μL of the reaction was then spotted onto a P30 filtermat and washed three times for 5 minutes in 75 mM phosphoric acid and once in methanol prior to drying and scintillation counting. PI3K p110β/p85α (h) PI3K (p110β/p85α) (h) was incubated in assay buffer containing 10 μM phosphatidylinositol-4,5-bisphosphate and MgATP (concentration as required). The reaction was initiated by the addition of the MgATP mix. After incubation for 30 minutes at room temperature, the reaction was stopped by the addition of stop solution containing EDTA and biotinylated phosphatidylinositol-3,4,5-trisphosphate. Finally, detection buffer was added, which contains europium-labelled anti-GST monoclonal antibody, GST-tagged GRP1 PH domain and streptavidinallophycocyanin. The plate was then read in time-resolved fluorescence mode and the homogenous time-resolved fluorescence (HTRF®) signal determined according to the formula HTRF=10000×(Em665nm/Em620 nm). YSK4 (h) YSK4 (h) was incubated with 8 mM MOPS pH 7.0, 0.2 mM EDTA, 250 […], 10 mM MgAcetate and [γ-^33P-ATP] (specific activity approx. 500 cpm/pmol, concentration as required). The reaction was initiated by the addition of the MgATP mix. After incubation for 40 minutes at room temperature, the reaction was stopped by the addition of 3% phosphoric acid solution. 10 μL of the reaction was then spotted onto a P30 filtermat and washed three times for 5 minutes in 75 mM phosphoric acid and once in methanol prior to drying and scintillation counting. PI4KA (PI4K alpha) The 2× PI4KA (PI4K alpha)/PI Lipid Kinase Substrate mixture was prepared in 20 mM Tris, pH 7.5, 0.4% Triton X-100, 5 mM MgCl2, 0.5 mM EGTA. The final 10 μL Kinase Reaction consisted of 75-300 ng PI4KA (PI4K alpha) and 100 μM PI Lipid Kinase Substrate in 7.5 mM HEPES, 10 mM Tris, pH 7.5, 0.2% Triton X-100, 2.5 mM MgCl2, 0.25 mM EGTA. After the 1 hour Kinase Reaction incubation, 5 μL of Detection Mix consisting of a europium labeled anti-ADP antibody, an Alexa Fluor® 647 labeled ADP tracer, and EDTA (to stop the kinase reaction) was added to the assay well. ADP formed by the kinase reaction (in the absence of an inhibitor) displaced the Alexa Fluor® 647 labeled ADP tracer from the antibody, resulting in a decrease in the TR-FRET signal. […] PI4KB (PI4K beta) The 2× PI4KB (PI4K beta)/PI Lipid Kinase Substrate mixture was prepared in 50 mM HEPES pH 7.5, 0.1% CHAPS, 1 mM EGTA, 4 mM MgCl2. […]

The target in a further assay is T5, LOK (h) (Homo sapiens, UniProt O94804).
T5 construct: purchased Millipore
Described as above. The format is biochemical. Particulars: 10 μM test compound. The method, then: as §1

The subject of assay [4] is cardiac allograft rejection. Description: Cardiac allograft transplantation model, treatment day -1 to day 30 (Examples 7 and 8). To be noted: Example 8. The format is in vivo, mice (C57BL/6 donor, Balb/c recipient).
Description: Inbreed C57BL/6 H-2b and Balb/c H-2d female mice, 8-10 weeks old, 20-25 g, were used as donor and recipient, respectively. Heterotopic heart transplantation was performed by implanting the donor heart on the neck of recipients using conventional microsurgery techniques. Graft beating was checked daily by inspection and palpation. Cessation of beating indicated graft rejection, which was confirmed by histological examination. Housing and all experimental animal procedures were approved by the Institutional Animal Care and Research Advisory Committee of the KU Leuven.
In assay [5] the test system is collagen-induced arthritis. Description: Collagen-induced arthritis model. The class given is in vivo, DBA1 male mice. Particulars: 40 mg/kg/d oral gavage. The method, then: The activity of test compound in an in vivo model, the collagen-induced arthritis model, was investigated. […] DBA1 male mice, 8-10 weeks old, were distributed in 2 groups according to the treatment. Twelve animals received daily treatment with vehicle (1% methylcellulose), twelve others received compound (3) at 40 mg/kg/d in 1% methylcellulose. The treatment initiation started the day before the intradermal injection at the base of the tail of 100 μg of emulsified chicken collagen II in presence of complete Freund adjuvant and added heat-killed Mycobacterium butyricum. Daily inspection of the mice was performed to weight animals and quantify disease score according to the following scale (score 0: normal; score 1: redness and/or swelling in one joint; score 2: redness and/or swelling in more than one joint; score 3: redness and/or swelling in the entire paw; score 4: deformity and/or ankylosis). On the day of sacrifice (day 42) serum were collected and anti-collagen II antibody titers were determined by ELISA. Joints were harvested, fixed in 6% paraformaldehyde, decalcified in formic acid 6% for 48 h, sliced and stained by hematoxylin and eosin staining. Hyperplasia of the synovium, infiltration of mono and polymorphonuclear cells and pannus formation parameters were scored blindly.

Assay [6] concerns cardiac allograft rejection. Description: Cardiac allograft transplantation and tolerance model, treatment day 0 to day 30 (Example 9).
Description: The activity of test compound in a mouse model of cardiac allograft transplantation experiment was investigated. […] Animals with beating graft at day 60 were rechallenged with a second graft from the same strain donor or from a third party donor.
To evaluate the operational tolerance phenotype, animals with functional graft at day 60 were challenged with a second graft from the same donor strain or from a third party. No treatment was applied.
Inbreed C57BL/6 H-2^b and Balb/c H-2^d female mice, 8-10 weeks old, 20-25 g, were used as donor and recipient, respectively. Heterotopic heart transplantation was performed by implanting the donor heart on the neck of recipients using conventional microsurgery techniques. Graft beating was checked daily by inspection and palpation. Cessation of beating indicated graft rejection. The third party donor was C3H H-2^k female mice, 8-10 weeks old, 20-25 gr.
Treatment started the day of transplantation (day 0) until day 30 post transplantation.
For assay [7], the system named is murine splenocytes stimulated with α-CD3 antibody. Description: Cytokine secretion after α-CD3 stimulation. The class given is cell-based, Balb/C mice. To be noted: Mus musculus, Splenocyte, 24 h. The method, then: The ability of test compounds to inhibit cytokine release by murine splenocytes after stimulation with α-CD3 antibody was also investigated.
2×10^6 splenocytes from Balb/C female mice, 8-10 weeks old in 220 μl of complete medium were stimulated with 0.1 μg of hamster anti mouse CD3ε antibody in presence of various concentrations of test compounds. After 24 h of incubation at 37° C., 5% CO2, supernatant were collected and cytokine titers were determined by flow cytometry according manufacturer protocols (MCB United States, Arlington, Mass., USA).
The results are shown in FIG. 1 compared to a DMSO negative control (▾). […].

[8] abbreviates: RPMI-1788, 144 h, read-out: IC50 MLR, 6 days culture.
The mark [9] stands for this setting: animals with functional graft at day 60, no treatment, n=2.

Chain of PI4KIIIβ (PI4KB, PI4K beta) (Q9UBF8 whole entry): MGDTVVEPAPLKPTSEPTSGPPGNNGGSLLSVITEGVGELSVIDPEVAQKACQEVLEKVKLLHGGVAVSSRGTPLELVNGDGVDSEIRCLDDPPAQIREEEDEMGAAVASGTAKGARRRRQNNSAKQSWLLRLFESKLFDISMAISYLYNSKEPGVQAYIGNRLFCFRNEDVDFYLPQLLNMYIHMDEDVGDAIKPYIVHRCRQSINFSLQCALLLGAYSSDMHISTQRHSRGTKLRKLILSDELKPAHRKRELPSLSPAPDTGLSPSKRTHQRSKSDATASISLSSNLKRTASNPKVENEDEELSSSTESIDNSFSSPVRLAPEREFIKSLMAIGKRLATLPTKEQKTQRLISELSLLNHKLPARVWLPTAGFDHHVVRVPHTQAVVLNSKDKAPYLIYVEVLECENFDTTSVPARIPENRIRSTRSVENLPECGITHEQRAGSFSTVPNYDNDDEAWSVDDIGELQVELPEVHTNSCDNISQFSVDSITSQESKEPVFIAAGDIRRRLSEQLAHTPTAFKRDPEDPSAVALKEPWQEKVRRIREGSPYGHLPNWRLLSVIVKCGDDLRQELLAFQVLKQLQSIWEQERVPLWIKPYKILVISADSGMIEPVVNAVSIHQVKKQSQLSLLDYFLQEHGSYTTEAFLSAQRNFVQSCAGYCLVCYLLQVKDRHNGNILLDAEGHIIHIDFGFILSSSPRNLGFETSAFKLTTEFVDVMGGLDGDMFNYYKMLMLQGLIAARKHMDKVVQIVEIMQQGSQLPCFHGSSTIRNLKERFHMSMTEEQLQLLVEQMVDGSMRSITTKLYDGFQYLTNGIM
T3 sequence (Q13153 whole entry): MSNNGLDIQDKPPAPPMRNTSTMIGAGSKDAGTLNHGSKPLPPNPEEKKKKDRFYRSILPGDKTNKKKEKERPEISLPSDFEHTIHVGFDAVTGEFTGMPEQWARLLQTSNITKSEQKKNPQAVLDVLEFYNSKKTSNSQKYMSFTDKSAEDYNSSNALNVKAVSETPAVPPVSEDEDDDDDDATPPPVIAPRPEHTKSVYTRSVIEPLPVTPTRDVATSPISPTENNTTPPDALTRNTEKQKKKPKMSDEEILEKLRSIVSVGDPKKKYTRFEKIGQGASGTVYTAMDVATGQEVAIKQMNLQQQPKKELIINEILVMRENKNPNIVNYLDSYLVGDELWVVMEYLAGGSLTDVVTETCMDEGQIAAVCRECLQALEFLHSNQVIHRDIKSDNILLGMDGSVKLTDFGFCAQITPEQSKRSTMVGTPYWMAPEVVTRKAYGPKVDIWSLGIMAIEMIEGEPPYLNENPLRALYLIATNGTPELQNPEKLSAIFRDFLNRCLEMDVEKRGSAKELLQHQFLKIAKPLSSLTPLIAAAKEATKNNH
T5 sequence (O94804 whole entry): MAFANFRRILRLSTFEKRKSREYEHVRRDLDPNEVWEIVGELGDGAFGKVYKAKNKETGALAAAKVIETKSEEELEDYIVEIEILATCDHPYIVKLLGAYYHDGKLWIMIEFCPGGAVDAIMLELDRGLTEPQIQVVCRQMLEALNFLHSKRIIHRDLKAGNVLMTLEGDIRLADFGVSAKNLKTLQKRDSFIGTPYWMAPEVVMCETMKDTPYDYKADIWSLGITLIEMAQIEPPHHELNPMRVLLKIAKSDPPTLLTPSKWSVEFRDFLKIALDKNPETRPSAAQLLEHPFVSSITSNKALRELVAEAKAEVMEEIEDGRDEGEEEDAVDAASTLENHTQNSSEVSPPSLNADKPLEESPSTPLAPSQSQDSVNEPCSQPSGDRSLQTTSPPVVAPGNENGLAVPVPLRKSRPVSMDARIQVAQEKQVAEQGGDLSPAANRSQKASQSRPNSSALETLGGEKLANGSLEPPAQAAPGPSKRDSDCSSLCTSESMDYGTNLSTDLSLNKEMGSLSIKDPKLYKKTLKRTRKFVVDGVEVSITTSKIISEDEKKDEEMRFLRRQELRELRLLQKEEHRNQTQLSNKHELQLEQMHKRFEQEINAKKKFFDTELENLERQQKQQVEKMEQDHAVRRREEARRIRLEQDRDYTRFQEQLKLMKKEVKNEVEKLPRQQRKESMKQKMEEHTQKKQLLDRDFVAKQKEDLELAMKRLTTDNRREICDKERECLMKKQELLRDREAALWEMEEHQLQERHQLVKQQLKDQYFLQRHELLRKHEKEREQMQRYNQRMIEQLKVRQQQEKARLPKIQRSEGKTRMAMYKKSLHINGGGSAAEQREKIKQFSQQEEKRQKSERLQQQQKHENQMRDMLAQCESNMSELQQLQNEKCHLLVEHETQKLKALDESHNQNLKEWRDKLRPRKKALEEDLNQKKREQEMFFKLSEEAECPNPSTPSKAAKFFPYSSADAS
T2 sequence (P42356 whole entry): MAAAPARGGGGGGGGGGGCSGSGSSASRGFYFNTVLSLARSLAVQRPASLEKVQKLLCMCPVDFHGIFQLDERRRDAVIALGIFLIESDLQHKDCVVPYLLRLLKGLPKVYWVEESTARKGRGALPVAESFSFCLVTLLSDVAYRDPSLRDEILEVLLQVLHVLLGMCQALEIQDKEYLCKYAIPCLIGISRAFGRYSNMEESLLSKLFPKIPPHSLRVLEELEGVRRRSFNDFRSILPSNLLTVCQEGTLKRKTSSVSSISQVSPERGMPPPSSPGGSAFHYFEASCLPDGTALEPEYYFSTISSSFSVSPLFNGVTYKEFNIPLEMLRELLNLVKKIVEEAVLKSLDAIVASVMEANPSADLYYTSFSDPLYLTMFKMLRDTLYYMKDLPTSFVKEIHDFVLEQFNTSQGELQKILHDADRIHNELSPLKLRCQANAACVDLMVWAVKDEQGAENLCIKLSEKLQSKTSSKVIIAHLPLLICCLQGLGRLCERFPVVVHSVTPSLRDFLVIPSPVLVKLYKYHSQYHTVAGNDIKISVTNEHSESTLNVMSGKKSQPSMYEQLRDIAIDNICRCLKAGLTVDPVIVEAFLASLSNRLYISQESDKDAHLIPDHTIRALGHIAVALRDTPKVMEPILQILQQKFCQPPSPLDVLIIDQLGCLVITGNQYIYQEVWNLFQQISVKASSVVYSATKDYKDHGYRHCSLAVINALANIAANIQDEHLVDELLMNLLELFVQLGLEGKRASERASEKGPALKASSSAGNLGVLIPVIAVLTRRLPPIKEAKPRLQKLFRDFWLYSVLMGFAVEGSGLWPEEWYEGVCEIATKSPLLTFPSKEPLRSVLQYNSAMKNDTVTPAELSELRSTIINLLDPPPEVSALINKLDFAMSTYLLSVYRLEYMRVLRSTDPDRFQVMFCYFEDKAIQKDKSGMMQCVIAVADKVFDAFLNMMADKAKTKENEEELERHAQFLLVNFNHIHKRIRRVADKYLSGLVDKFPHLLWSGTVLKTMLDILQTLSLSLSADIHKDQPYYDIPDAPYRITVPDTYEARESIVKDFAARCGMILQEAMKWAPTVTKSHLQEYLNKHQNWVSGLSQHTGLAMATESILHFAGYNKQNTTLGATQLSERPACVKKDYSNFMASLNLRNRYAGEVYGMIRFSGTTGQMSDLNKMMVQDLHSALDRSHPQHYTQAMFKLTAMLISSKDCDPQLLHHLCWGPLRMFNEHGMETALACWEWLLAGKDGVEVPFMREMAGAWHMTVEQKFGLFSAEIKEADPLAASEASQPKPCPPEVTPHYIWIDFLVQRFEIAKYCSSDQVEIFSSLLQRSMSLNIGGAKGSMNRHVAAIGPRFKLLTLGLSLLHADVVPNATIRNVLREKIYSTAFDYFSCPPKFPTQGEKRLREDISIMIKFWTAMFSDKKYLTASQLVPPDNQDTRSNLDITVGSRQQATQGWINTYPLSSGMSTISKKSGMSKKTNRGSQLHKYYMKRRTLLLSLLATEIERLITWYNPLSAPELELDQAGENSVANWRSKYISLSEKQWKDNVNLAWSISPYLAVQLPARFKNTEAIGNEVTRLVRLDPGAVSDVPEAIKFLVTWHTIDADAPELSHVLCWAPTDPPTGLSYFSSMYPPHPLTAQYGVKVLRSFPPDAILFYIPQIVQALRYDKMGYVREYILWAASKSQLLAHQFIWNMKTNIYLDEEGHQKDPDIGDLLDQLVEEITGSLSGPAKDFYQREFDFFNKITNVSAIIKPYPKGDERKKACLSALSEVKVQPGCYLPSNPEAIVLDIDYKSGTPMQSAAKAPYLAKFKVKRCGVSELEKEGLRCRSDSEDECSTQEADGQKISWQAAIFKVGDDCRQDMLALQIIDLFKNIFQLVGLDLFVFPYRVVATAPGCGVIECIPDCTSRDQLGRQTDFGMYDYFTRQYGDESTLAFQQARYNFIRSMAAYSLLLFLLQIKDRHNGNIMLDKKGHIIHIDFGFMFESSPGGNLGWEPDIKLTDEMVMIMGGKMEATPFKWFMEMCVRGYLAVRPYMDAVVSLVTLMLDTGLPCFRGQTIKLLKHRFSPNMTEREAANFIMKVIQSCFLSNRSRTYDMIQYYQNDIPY

In the case of `CC(=O)Nc1nc(C)c(-c2ccc(Cl)c(S(=O)(=O)NCCO)c2)s1` [PIK93, reference compound], the IC50 in assay [1] (setting [8]) was 401 nM.
With `Cc1cccc(NC(=O)N2CCN(c3nc(N)nc4sc(-c5cccnc5)nc34)CC2)c1` [formula (2), 4-[5-amino-2-(pyridin-3-yl)thiazolo[5,4-d]pyrimidin-7-yl]-N-m-tolylpiperazine-1-carboxamide], the Kinase activity is listed as 82 percentage of control in assay [2]; 90 percentage of control on PI4KA (PI4K alpha); 108 percentage of control at PAK1; 79 percentage of control at YSK4 (h); 98 percentage of control at LOK (h). Further, the IC50 in [3] was 14.3 nM. In addition, the inhibition at 10 µM in assay [3] is 99.5%.
For the compound `COc1ccc(-c2c(C)nn3c(NCCN4CCOCC4)cc(C)nc23)cc1OC` [T-00127-HEV1, reference compound], in assay [1] (RPMI-1788, 144 h, read-out: IC50 MLR), the IC50 came to 842 nM.
Regarding `Cc1ccc(NC(=O)N2CCN(c3nc(N)nc4sc(-c5cccnc5)nc34)CC2)cc1` [formula (3)], in assay [4] (20 mg/kg/d daily gavage, individual animals, 20 mg/kg/day), the “Surviving days (cardiac graft)” value was “up to 13 days”. In assay [4] (40 mg/kg per day), the “grafts continuously functioning after stopping the treatment on day 30” value is listed as 3/4 and the “grafts with continuous survival while treatment continued” value was 4/6. The “histological scores (hyperplasia, infiltration, pannus)” value in assay [5] (joints day 42) is reported as “reduced”. In [5] (preventive, vs vehicle), the “onset of arthritic symptoms” value is given as “delay the onset of arthritic symptoms” and the symptom severity result is “decrease symptom severity”. Also, the “anti-CII IgG titre” value in [5] (serum day 42) is “reduced”. Also, the “grafts with prolonged survival at day 30” value in [6] (Example 9, each group (40, 50, 60 mg/kg/d)) is 3 out of 6. Also, in [6] (setting [9]), the “day of rejection of second graft from third party donor” value is 8 days and the “time second graft from same donor strain was functional” value is listed as “more than 90 days”. Besides, in [7] (read-out: IC50 for inhibition of IFNγ release), the IC50 was less than 1 nM. Further, the half-inhibitory concentration (IC50) in assay [7] (read-out: IC50 for inhibition of IL2 release) was less than 1 nM.
With `Nc1nc(N2CCN(C(=O)COc3ccc(F)cc3)CC2)c2nc(-c3cccnc3)sc2n1` [formula (4)], the IC50 in assay [1] (setting [8]) was less than 50 nM; in assay [1] (read-out: IC50 MLR, 6 days culture) it was 25 nM; in [3], 21.8 nM. Also, the inhibition at 10 µM in assay [3] came to 95%.

As usually defined, the IC50 is the concentration needed to halve the response being measured. The term inhibition denotes how much of the control response was suppressed.

The values are drawn from patent US9301961B2, “Autoimmune and inflammatory disorder therapy” (Katholieke Universiteit Leuven, K.U. Leuven R&D, priority 2011, dated 2016).
